Measurements published in patent US20240150368A1, “ULK INHIBITORS AND METHODS OF USE THEREOF” (Deciphera Pharmaceuticals, LLC, priority 2022, published 2024).

How the values were obtained:
ULK2 kinase = target: T1, ULK2 kinase (Homo sapiens, UniProt Q8IYT8); experiment: Biochemical assay for ULK2 (coupled pyruvate kinase/lactate dehydrogenase assay); settings: 1 mM ATP, 1 nM ULK2; read-out: ULK2 (inhibition of biochemical activity), IC50
T1 construct: (residues 1-306 with N-terminal GST and His tag; ID NO: 2); purchased Signal Chem U02-11G
In short: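 Continuous PK/LDH-coupled NADH oxidation assay (A340) with 1 nM ULK2, 200 μM ULKtide and 1 mM ATP in Tris pH 7.5, 15 mM MgCl2, 1% DMSO, read 6 h at 30° C. Rates from the 2-3 h window converted to percent inhibition against no-compound and known-inhibitor controls; IC50 by four-parameter sigmoidal fit.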

ULK1 kinase = target: T2, ULK1 kinase (Homo sapiens, UniProt O75385, E37A/K38A); experiment: Biochemical assay for ULK1 (coupled pyruvate kinase/lactate dehydrogenase assay); settings: 1 mM ATP, 0.1 nM ULK1; read-out: ULK1 (inhibition of biochemical activity), IC50
T2 construct: (residues 1-283; ID NO: 1); purchased Beryllium
T2 sequence (O75385 1-283 E37A/K38A): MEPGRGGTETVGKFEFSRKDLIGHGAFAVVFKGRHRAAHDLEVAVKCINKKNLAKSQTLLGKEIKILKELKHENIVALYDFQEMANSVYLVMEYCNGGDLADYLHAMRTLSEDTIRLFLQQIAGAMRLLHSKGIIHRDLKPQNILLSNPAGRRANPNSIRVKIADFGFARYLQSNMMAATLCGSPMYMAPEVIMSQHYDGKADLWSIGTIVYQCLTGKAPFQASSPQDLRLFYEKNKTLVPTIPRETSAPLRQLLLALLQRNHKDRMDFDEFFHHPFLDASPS
In short: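 IC50 values were fitted to percent inhibition, normalised with no-compound and known-inhibitor controls, using rates from 2–3 h of a 6 h read at 30 °C. ADP was coupled through pyruvate kinase/lactate dehydrogenase to NADH loss at 340 nm.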

[1] = system: ULK kinase substrate ATG13 (pS318-ATG13) in HCT-116 cells; experiment: pATG13 levels of mutant KRas HCT-116 cells after treatment with ULK inhibitors in combination with trametinib (ELISA); format: cell-based, human
Experimental: pATG13 Levels of Mutant KRas HCT-116 Cells after Treatment with ULK Inhibitors in Combination with Trametinib
HCT-116 human colon cancer cells (10000 cells/well) were added to a 384-well tissue-culture treated plate in 50 μL of pre-warmed DMEM medium supplemented with 10% characterized fetal bovine serum (Invitrogen, Carlsbad, CA), 100 units/mL penicillin G, and 100 μg/mL streptomycin and allowed to grow overnight at 37° C., 5% CO2, and 95% humidity. The following day, 10 μL of media containing trametinib or DMSO as a control was added to wells. The final concentration of trametinib in wells was 250 nM. A dose response of a test compound (0.6 μL per well) was added. DMSO (0.6 μL) was added to control wells. The plate was briefly shaken to mix wells and then incubated at 37° C. overnight. The next day, the media was aspirated and cells were washed with Dulbecco's Phosphate Buffered Saline (Gibco). Cells were lysed using MPER lysis buffer (Pierce, Rockford, IL) containing Halt Phosphatase and Protease Inhibitors (Pierce, Rockford, IL) and Phosphatase inhibitor cocktail 2 (Sigma, St. Louis, MO) at 4° C. for 10 minutes with shaking.
Cellular levels of phospho-Serine 318 ATG13 (pATG13) were measured via an ELISA method. Total ATG13 Antibody (Cell Signaling Cat #13273) was used to coat the wells. The plate was incubated at 4° C. overnight and washed with ELISA wash buffer (Biolegend Cat #421601). The wells were then blocked with assay diluent (Biolegend Cat #421203) for 1 h at rt. Plate wells were washed with ELISA wash buffer. Cell lysate was added to wells and incubated at rt for 2 h. Plate wells were washed with ELISA wash buffer. Biotinylated pS318-ATG13 antibody (Rockland Immunochemicals Cat #600-401-C49) was diluted in assay diluent and added to each well and incubated at rt for 1 h. Plate wells were washed with ELISA wash buffer. Streptavidin linked to horseradish peroxidase (Thermo Fisher Cat #21140) was diluted in assay diluent and added to each well and incubated at rt for 1 h. Plate wells were washed with ELISA wash buffer. High sensitivity TMB substrate (Biolegend Cat #421101) was added to each well and incubated at rt for 20 minutes. The reaction was stopped with 2.0N sulfuric acid. The plate was analyzed at on a plate reader measuring absorbance at 450 nm and 540 nm (background). Signal was calculated by first subtracting the background absorbance at 540 nm from the absorbance at 450 nm for each well. Next, the background corrected absorbance at 450 nm from blank wells was subtracted from test wells. Data was compared to control wells to determine % ATG13 phosphorylation. GraphPad Prism was used to calculate IC50 values.

T1 sequence (Q8IYT8 with tags, fused parts or gaps): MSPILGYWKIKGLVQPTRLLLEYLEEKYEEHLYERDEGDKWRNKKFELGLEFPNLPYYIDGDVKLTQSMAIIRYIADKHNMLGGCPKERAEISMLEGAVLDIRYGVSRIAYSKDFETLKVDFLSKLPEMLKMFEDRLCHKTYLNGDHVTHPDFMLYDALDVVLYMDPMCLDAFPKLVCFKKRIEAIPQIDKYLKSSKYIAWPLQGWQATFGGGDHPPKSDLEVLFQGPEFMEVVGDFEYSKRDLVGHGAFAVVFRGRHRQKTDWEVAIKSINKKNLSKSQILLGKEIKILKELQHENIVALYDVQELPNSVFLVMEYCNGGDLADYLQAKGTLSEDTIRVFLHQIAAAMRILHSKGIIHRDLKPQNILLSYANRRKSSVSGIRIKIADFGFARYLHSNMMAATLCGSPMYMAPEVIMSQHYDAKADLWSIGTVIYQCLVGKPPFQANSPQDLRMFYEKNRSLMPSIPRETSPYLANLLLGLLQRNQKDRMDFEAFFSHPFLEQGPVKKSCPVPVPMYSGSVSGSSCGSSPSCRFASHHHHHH

Compound	IC50 (ULK2 kinase) [nM]	IC50 (ULK1 kinase) [nM]	IC50 [1] [nM]
CC/C(Nc1cnn(C(C)C)c1)=C1/C(=O)Nc2ccc(C(=O)NCC(F)(F)F)cc21 [Example 4, (Z)-3-(1-((1-isopropyl-1H-pyrazol-4-yl)amino)propylidene)-2-oxo-N-(2,2,2-trifluoroethyl)indoline-5-carboxamide]	10 to 100	≤ 10	≤ 100
CC/C(Nc1cnn(C2CCN(C(C)C)CC2)c1)=C1/C(=O)Nc2ccc(C(=O)N(C)CC(F)(F)F)cc21 [Example 7]	10 to 100	≤ 10	≤ 100
CC/C(Nc1cnn(C2CCN(C(C)C)CC2)c1)=C1/C(=O)Nc2ccc(C(=O)N(C)CCOC)cc21 [Example 9]	–	10 to 100	≤ 100
CC/C(Nc1cnn(C2CCN(C(C)C)CC2)c1)=C1/C(=O)Nc2ccc(C(=O)NCC(C)C)cc21 [Example 16]	10 to 100	≤ 10	≤ 100
CC/C(Nc1cnn(C2CCN(C(C)C)CC2)c1)=C1/C(=O)Nc2ccc(C(=O)NCCC#N)cc21 [Example 26]	10 to 100	≤ 10	≤ 100
CC/C(Nc1ccc(N2CCN(C(C)C)CC2)cc1)=C1/C(=O)Nc2ccc(C(=O)NC[C@H]3CCCO3)cc21 [Example 47]	10 to 100	≤ 10	≤ 100
CC/C(Nc1cnn(C2CCNCC2)c1)=C1/C(=O)Nc2ccc(C(=O)NC[C@H]3CCCO3)cc21 [Example 52]	10 to 100	≤ 10	≤ 100
CC/C(Nc1cnn(C2CC3CCC(C2)N3C)c1)=C1/C(=O)Nc2ccc(C(=O)NC[C@H]3CCCO3)cc21 (stereo partly drawn) [Example 53]	10 to 100	≤ 10	≤ 100
CC/C(Nc1ccc(N2CC3CC(C2)N3C)cc1)=C1/C(=O)Nc2ccc(C(=O)NCC(F)(F)F)cc21 [Example 60]	10 to 100	≤ 10	≤ 100
CC/C(Nc1ccc(N2C[C@H]3CN(C)C[C@H]3C2)cc1)=C1/C(=O)Nc2ccc(C(=O)NCC(F)(F)F)cc21 [Example 61]	10 to 100	≤ 10	≤ 100
CC/C(Nc1ccc(N2CCN(C(C)C)CC2)cn1)=C1/C(=O)Nc2ccc(C(=O)NC[C@H]3CCCO3)cc21 [Example 93]	10 to 100	≤ 10	≤ 100
CC/C(Nc1cnn(CC)c1)=C1/C(=O)Nc2ccc(C(=O)NCC(F)(F)F)cc21 [Example 107]	10 to 100	≤ 10	≤ 100
CC/C(Nc1cnn(C(F)(F)F)c1)=C1/C(=O)Nc2ccc(C(=O)NCC(F)(F)F)cc21 [Example 113]	10 to 100	10 to 100	≤ 100
CC/C(Nc1cnn(C(F)F)c1)=C1/C(=O)Nc2ccc(C(=O)NCC(F)(F)F)cc21 [Example 114]	10 to 100	10 to 100	≤ 100
CC/C(Nc1cnn(C2CCC2)c1)=C1/C(=O)Nc2ccc(C(=O)NCC(F)(F)F)cc21 [Example 117]	≤ 10	≤ 10	≤ 100
CC/C(Nc1cnn(C(C)C)c1)=C1/C(=O)Nc2ccc(C(=O)NCC(C)C)cc21 [Example 130]	10 to 100	≤ 10	≤ 100
CC/C(Nc1cnn(C(C)C)c1)=C1/C(=O)Nc2ccc(C(=O)NCC3(C(F)(F)F)CC3)cc21 [Example 140]	10 to 100	≤ 10	≤ 100
CC/C(Nc1cc(C(F)(F)F)ccn1)=C1/C(=O)Nc2ccc(C(=O)NCC(F)(F)F)cc21 [Example 149]	10 to 100	10 to 100	–
CC/C(Nc1cnn(C(C)C)c1)=C1/C(=O)Nc2ccc(C(=O)NCC3(F)CC3)cc21 [Example 152]	≤ 10	≤ 10	–
CC/C(Nc1cnn(C)c1)=C1/C(=O)Nc2ccc(C(=O)NCC3(F)CC3)cc21 [Example 154]	10 to 100	≤ 10	–
CC/C(Nc1cnn(CC(C)OC)c1)=C1/C(=O)Nc2ccc(C(=O)NCC(F)(F)F)cc21 (stereo not drawn) [Example 157]	100 to 500	10 to 100	–
CC/C(Nc1cnn(CC(F)(F)F)c1)=C1/C(=O)Nc2ccc(C(=O)NCC(C)(C)F)cc21 [Example 160]	10 to 100	≤ 10	–
CC/C(Nc1cnn(CC(F)F)c1)=C1/C(=O)Nc2ccc(C(=O)NCC(C)(C)F)cc21 [Example 161]	10 to 100	≤ 10	–
CC/C(Nc1cnn(C(C)C)c1)=C1/C(=O)Nc2ccc(C(=O)NCC3(C)CCOC3)cc21 (stereo not drawn) [Example 168]	10 to 100	10 to 100	–
CC/C(Nc1cnn(C2CCOCC2)c1)=C1/C(=O)Nc2ccc(C(=O)NCC(C)(C)F)cc21 [Example 173]	≤ 10	≤ 10	–

Results, then the compound that gave them:

IC50 (ULK2 kinase) [nM]	IC50 (ULK1 kinase) [nM]	IC50 [1] [nM]	Compound
10 to 100	≤ 10	≤ 100	CC/C(Nc1cnn(C2CCN(C(C)C)CC2)c1)=C1/C(=O)Nc2ccc(C(=O)NCC(F)(F)F)cc21 [Example 8]
10 to 100	≤ 10	≤ 100	CC/C(Nc1cnn(C2CN(C)C2)c1)=C1/C(=O)Nc2ccc(C(=O)NC[C@H]3CCCO3)cc21 [Example 54]
100 to 500	10 to 100	≤ 100	CC/C(Nc1cnn(C2CCN(C(C)C)CC2)c1)=C1/C(=O)Nc2ccc(C(=O)NC[C@@H](C)OC)cc21 [Example 58]
100 to 500	≤ 10	≤ 100	CC/C(Nc1cnn(C2CCN(C(C)C)CC2)c1)=C1/C(=O)Nc2ccc(C(=O)NCCOC)cc21 [Example 98]
100 to 500	100 to 500	100 to 300	CC/C(Nc1cnn(C2CCN(C(C)C)CC2)c1)=C1/C(=O)Nc2ccc(C(C)=O)cc21 [Example 123]
10 to 100	≤ 10	≤ 100	CC/C(Nc1cnn(C(C)C)c1)=C1/C(=O)Nc2ccc(C(=O)NCC(C)(C)F)cc21 [Example 135]
≤ 10	≤ 10	–	CC/C(Nc1cnn(CC)c1)=C1/C(=O)Nc2ccc(C(=O)NCC3(F)CC3)cc21 [Example 153]
10 to 100	≤ 10	–	CC/C(Nc1cnn(C(C)C)c1)=C1/C(=O)Nc2ccc(C(=O)NCC3(C#N)CC3)cc21 [Example 156]
100 to 500	10 to 100	–	CC/C(Nc1cnn(CC(C)OC)c1)=C1/C(=O)Nc2ccc(C(=O)NCC(F)(F)F)cc21 (stereo not drawn) [Example 158]
10 to 100	10 to 100	–	CC/C(Nc1cnn(C(C)CC)c1)=C1/C(=O)Nc2ccc(C(=O)NCC(F)(F)F)cc21 (stereo not drawn) [Example 159]
≤ 10	≤ 10	–	CC/C(Nc1cnn(C(C)C)c1)=C1/C(=O)Nc2ccc(C(=O)NCCC(F)(F)F)cc21 [Example 166]
10 to 100	10 to 100	–	CC/C(Nc1cnn(C(F)(F)F)c1)=C1/C(=O)Nc2ccc(C(=O)NCC(C)C)cc21 [Example 169]
